Measurements taken from patent publication US6399542B1, “Alkoxyimino-substituted bicyclic compounds compositions containing the same and method of making such compounds” (Agro-Kanesho Co., Ltd., priority 1997, dated 2002).
Like-named read-outs stand apart in the source and are kept apart here.

Experiments:
[1] = system: Erysiphe graminis; test: Effects on Barley powdery mildew (preventive spray test); assay type: in vivo; conditions: lesions counted seven days after inoculation
[2] = system: Phytophthora infestans; assay type: in vivo; conditions: Tomato late blight, 5 days after inoculation
[3] = system: Psecidoperonospora cubensis; test: Effect on Cucumber downy mildew (preventive spray test); assay type: in vivo; conditions: 7 days after inoculation
[4] = system: Chochliobolus miyabeanus; test: Effect on Rice brown spot (preventive spray test); assay type: in vivo; conditions: 7 days after inoculation
[5] = system: Botrytis cinerea; test: Effect on Cucumber gray mold (cotyledon paper disc test); assay type: in vivo; conditions: 3 days after inoculation
[6] = system: Rhizoctonia solani; test: Effect on Rice sheath blight (preventive spray test); conditions: 10 days after inoculation
Description: An emulsion of a compound of the present invention prepared in Preparation Example 2 was diluted with water and uniformly sprayed on 5 rice plant seedlings (variety: Koshihikari) in 4.5-leaf stage in each plastic pot having a diameter of 6 cm, with a spray gun. One day after the spraying, the seedlings were bundled at the second sheath with a string. Colonies of Rhizoctonia solani previously cultured in PSA culture medium were bored with a cork borer to obtain pieces having a diameter of 4 mm. The piece was put in the bundle, and kept in a high-humidity room at 25° C. until the examination. Ten days after the inoculation, the degree of the disease was examined, and the preventive rate (effect of inhibiting the disease) was calculated on the basis of the following standard:
Preventive rate=[1-D′/C′]×100
C′: Severity in untreated section
D′: Severity in treated section.

[7] = system: Puccinia recondite; test: Penetration and translocation in wheat leaves (covered leaf tip, brown rust); assay type: in vivo; conditions: conc. of active ingredient 100 ppm
[8] = system: Puccinia recondita; test: Effect on Wheat brown rust (preventive spray test); assay type: in vivo; conditions: 7 days after inoculation
[9] = conc. of active ingredient 4 ppm
[10] = conc. of active ingredient 20 ppm
[11] = conc. of active ingredient 100 ppm

SMILES | Preventive rate (%) [1, 9] [%] | Preventive rate (%) [1, 10] [%] | Preventive rate (%) [1, 11] [%] | Preventive rate (%) [2, 10] [%] | Preventive rate (%) [2, 11] [%] | Preventive rate (%) [3, 10] [%] | Preventive rate (%) [3, 11] [%] | Preventive rate (%) [4, 10] [%] | Preventive rate (%) [4, 11] [%] | Preventive rate (%) [5, 10] [%] | Preventive rate (%) [5, 11] [%] | Preventive rate (%) [6, 10] [%] | Preventive rate (%) [6, 11] [%] | Preventive rate (%) [8, 9] [%] | Preventive rate (%) [8, 10] [%] | Preventive rate (%) [8, 11] [%] | also measured
COC=C(C(=O)OC)c1ccccc1COc1ccc2c(c1C)OCC2=NOC [a-13] | 100 | 100 | 100 | 100 | 100 | 96 | 100 | 88 | 96 | 96 | 100 | 97 | 97 | – | – | – | –
CON=C(C(=O)OC)c1ccccc1COc1ccc2c(c1C)OC(C)CC2=NOC (racemic) [d-10] | – | – | – | – | – | – | – | – | – | – | – | – | – | – | – | – | Number of lesions formed within the mark to the tip [7]: 0; Preventive rate (%) [7]: 100%; Rate of the translocation perfect preventive conc. (%) [7]: 100%
C=CCON=C1COc2c1ccc(OCc1ccccc1/C(=N\OC)C(=O)OC)c2C [a-59] | – | 92 | 100 | – | – | – | – | – | – | 73 | 76 | 60 | 72 | 90 | 98 | 100 | –
CNC(=O)C(=NOC)c1ccccc1COc1ccc2c(c1C)CCC2=NOC [e-16] | 100 | 100 | 100 | 100 | 100 | 100 | 100 | – | – | – | – | – | – | – | 100 | 100 | Number of lesions formed within the mark to the tip [7]: 0; Preventive rate (%) [7]: 100%; Rate of the translocation perfect preventive conc. (%) [7]: 100%
CNC(=O)/C(=N/OC)c1ccccc1COc1ccc2c(c1C)OCC2=NOC/C=C/Cl [a-62] | 98 | 100 | 100 | 97 | 98 | 100 | 100 | 83 | 88 | 96 | 100 | 91 | 98 | 100 | 100 | 100 | Preventive rate (%) [3, 9]: 94%
CNC(=O)C(=NOC)c1ccccc1COc1cc(C)c2c(c1C)CCC2=NOC [e-23] | 100 | 100 | 100 | 100 | 100 | 96 | 100 | 98 | 98 | 86 | 96 | 64 | 69 | – | 100 | 100 | –
C#CCON=C1COc2c1ccc(OCc1ccccc1/C(=N\OC)C(=O)OC)c2C [a-70] | – | 100 | 100 | 95 | 95 | 88 | 91 | – | – | 53 | 85 | 80 | 90 | 99 | 100 | 100 | –
CO/N=C(/C(=O)OC)c1ccccc1COc1ccc2c(c1C)OCC2=NOC/C=C/Cl [a-61] | 99 | 100 | 100 | 89 | 91 | – | – | 72 | 91 | 91 | 85 | 60 | 96 | 91 | 100 | 100 | Preventive rate (%) [4, 9]: 49%
